Measurements taken from ChEMBL document CHEMBL1154382, “Preliminary SAR analysis of novel antiproliferative N(6),5'-bis-ureidoadenosine derivatives” (2009).

Assays:
Type in all cases: functional
[1] = tested on: CCRF-CEM; assay: Antiproliferative activity against human CCRF-CEM cells
[2] = tested on: HT-29; assay: Antiproliferative activity against human HT-29 cells
[3] = tested on: MDA-MB-435; assay: Antiproliferative activity against human MDA-MB-435 cells
[4] = tested on: U-251; assay: Antiproliferative activity against human U251 cells
[5] = tested on: NCI-H522; assay: Antiproliferative activity against human NCI-H522 cells
[6] = tested on: NCI-H23; assay: Antiproliferative activity against human NCI-H23 cells
[7] = tested on: SK-MEL-28; assay: Antiproliferative activity against human SK-MEL-28 cells
[8] = tested on: RXF 393; assay: Antiproliferative activity against human RXF393 cells
[9] = tested on: OVCAR-8; assay: Antiproliferative activity against human OVCAR8 cells
[10] = tested on: MCF7; assay: Antiproliferative activity against human MCF7 cells
[11] = tested on: M14; assay: Antiproliferative activity against human M14 cells
[12] = tested on: NCI-H226; assay: Antiproliferative activity against human NCI-H226 cells
[13] = tested on: UACC-257; assay: Antiproliferative activity against human UACC257 cells
[14] = tested on: SF-268; assay: Antiproliferative activity against human SF268 cells
[15] = tested on: A498; assay: Antiproliferative activity against human A498 cells
[16] = tested on: KM12; assay: Antiproliferative activity against human KM12 cells
[17] = tested on: 786-0; assay: Antiproliferative activity against human 786-0 cells
[18] = tested on: IGROV-1; assay: Antiproliferative activity against human IGROV1 cells
[19] = tested on: HCT-116; assay: Antiproliferative activity against human HCT116 cells
[20] = tested on: LOX IMVI; assay: Antiproliferative activity against human LOXIMVI cells
[21] = tested on: SK-MEL-5; assay: Antiproliferative activity against human SK-MEL-5 cells
[22] = tested on: HCC 2998; assay: Antiproliferative activity against human HCC2998 cells
[23] = tested on: MOLT-4; assay: Antiproliferative activity against human MOLT4 cells
[24] = tested on: Malme-3M; assay: Antiproliferative activity against human MALME-3M cells
[25] = tested on: SN12C; assay: Antiproliferative activity against human SN12C cells
[26] = tested on: EKVX; assay: Antiproliferative activity against human EKVX cells
[27] = tested on: SR; assay: Antiproliferative activity against human SR cells
[28] = tested on: NCI-H460; assay: Antiproliferative activity against human NCI-H460 cells
[29] = tested on: COLO 205; assay: Antiproliferative activity against human COLO205 cells
[30] = tested on: K562; assay: Antiproliferative activity against human K562 cells
[31] = tested on: A549; assay: Antiproliferative activity against human A549 cells
[32] = tested on: HOP-92; assay: Antiproliferative activity against human HOP92 cells
[33] = tested on: OVCAR-3; assay: Antiproliferative activity against human OVCAR-3 cells
[34] = tested on: NCI-H322M; assay: Antiproliferative activity against human NCI-H322M cells
[35] = tested on: HL-60(TB); assay: Antiproliferative activity against human HL-60(TB) cells
[36] = tested on: HOP-62; assay: Antiproliferative activity against human HOP62 cells
[37] = tested on: SW-620; assay: Antiproliferative activity against human SW620 cells
[38] = tested on: SK-MEL-2; assay: Antiproliferative activity against human SK-MEL-2 cells
[39] = tested on: DU-145; assay: Antiproliferative activity against human DU145 cells
[40] = tested on: UO-31; assay: Antiproliferative activity against human UO31 cells
[41] = tested on: CAKI-1; assay: Antiproliferative activity against human Caki1 cells
[42] = tested on: BT-549; assay: Antiproliferative activity against human BT549 cells
[43] = tested on: HCT-15; assay: Antiproliferative activity against human HCT15 cells
[44] = tested on: SF-539; assay: Antiproliferative activity against human SF539 cells
[45] = tested on: TK-10; assay: Antiproliferative activity against human TK10 cells
[46] = tested on: OVCAR-4; assay: Antiproliferative activity against human OVCAR4 cells
[47] = tested on: SF-295; assay: Antiproliferative activity against human SF295 cells
[48] = tested on: MDA-MB-231; assay: Antiproliferative activity against human MDA-MB-231 cells
[49] = tested on: OVCAR-5; assay: Antiproliferative activity against human OVCAR5 cells
[50] = tested on: SNB-75; assay: Antiproliferative activity against human SNB75 cells
[51] = tested on: T47D; assay: Antiproliferative activity against human T47D cells
[52] = tested on: SK-OV-3; assay: Antiproliferative activity against human SKOV3 cells
[53] = Antiproliferative activity against human Hs 578T cells
[54] = Antiproliferative activity against human […] cells
[55] = tested on: SNB-19; assay: Antiproliferative activity against human SNB19 cells
[56] = tested on: UACC-62; assay: Antiproliferative activity against human UACC62 cells
[57] = tested on: ACHN; assay: Antiproliferative activity against human ACHN cells

CNC(=O)NC[C@H]1O[C@@H](n2cnc3c(NC(=O)Nc4ccccc4)ncnc32)[C@H](O[Si](C)(C)C(C)(C)C)[C@@H]1CC(=O)N(C)OC
GI50 [1]: 6.37 µM
GI50 [2]: 5.37 µM
GI50 [3]: 10.9 µM
GI50 [4]: 5.66 µM
GI50 [5]: 11.1 µM
GI50 [6]: 57.2 µM
GI50 [7]: 7.77 µM
GI50 [8]: 9.74 µM
GI50 [9]: 9.02 µM
GI50 [10]: 5.59 µM
GI50 [11]: 15.2 µM
GI50 [12]: 41.9 µM
GI50 [13]: 22.6 µM
GI50 [14]: 8.29 µM
GI50 [15]: 3.87 µM
GI50 [16]: 23.9 µM
GI50 [17]: 9.01 µM
GI50 [18]: 3.72 µM
GI50 [19]: 4.2 µM
GI50 [20]: 7.3 µM
GI50 [21]: 5.81 µM
GI50 [22]: 30.6 µM
GI50 [23]: 2.23 µM
GI50 [24]: 11.4 µM
GI50 [25]: 85.3 µM
GI50 [26]: 26.4 µM
GI50 [27]: 1.27 µM
GI50 [28]: 7.49 µM
GI50 [29]: 12.3 µM
GI50 [30]: 3.12 µM
GI50 [31]: 9.35 µM
GI50 [32]: 2.71 µM
GI50 [33]: 7.11 µM
GI50 [34]: > 100 µM
GI50 [35]: 0.00181 µM
GI50 [36]: 24.9 µM
GI50 [37]: > 100 µM
GI50 [38]: 14.9 µM
GI50 [39]: 16.6 µM
GI50 [40]: 7.79 µM
GI50 [41]: 53.8 µM
GI50 [42]: 29 µM
GI50 [43]: 6.47 µM
GI50 [44]: 22.3 µM
GI50 [45]: 20.5 µM
GI50 [46]: 53 µM
GI50 [47]: 9.09 µM
GI50 [48]: 12.3 µM
GI50 [49]: 38.2 µM
GI50 [50]: 12.7 µM
GI50 [51]: 13.9 µM
GI50 [52]: 52.7 µM
GI50 [53]: 5.79 µM
GI50 [54]: 1.58 µM
GI50 [55]: > 100 µM
GI50 [56]: 41.9 µM
GI50 [57]: 14.4 µM
